The values that follow are results of earlier work, collected in paper PMC10698726 (Molecular Pharmaceutics, 2023).

In one data set the test system is OCT1. Set-up: method as in PMID 34884800. Conditions: cited from earlier work.
The test system of another data set is OCT2. Set-up: method as in PMID 34884800. Conditions: cited from earlier work.

With `CCCC(C(=O)c1ccccc1)N1CCCC1` (stereo not drawn) [α-pyrrolidinovalerophenone], the “difference in the inhibition of OCT1 between enantiomers” value in the data set with OCT1 is given as “twofold difference”. In addition, the “difference in the inhibition of OCT2 between enantiomers” value with OCT2 is given as “no difference”.
